Laboratory results taken from ChEMBL document CHEMBL4406807, “Discovery of 3,4,6-Trisubstituted Piperidine Derivatives as Orally Active, Low hERG Blocking Akt Inhibitors via Conformational Restriction and Structure-Based Design” (J Med Chem, 2019).

Assays:
OVCAR-8 = assay: Antiproliferative activity against human OVCAR8 cells; type: functional, cell-based
[1] = target: RAC-alpha serine/threonine-protein kinase (Homo sapiens, UniProt P31749)
Description: Inhibition of human Akt1 expressed in Escherichia coli using STK Substrate 2-biotin as substrate incubated for 1 hr by HTRF assay

HCT-116 = assay: cells; settings: Homo sapiens, HCT-116, 72 h
LNCaP = assay: Antiproliferative activity against human LNCAP cells; type: functional, cell-based
hERG (KCNH2) = hERG (KCNH2) (Homo sapiens, UniProt Q12809); assay: Inhibition of ERG in human HEK293 cells at 3 uM at -80 mV holding potential by whole-cell patch clamp assay relative to control; type: cell-based; settings: HEK293 cells expressing ERG
Chain of hERG (KCNH2) (Q12809 whole entry): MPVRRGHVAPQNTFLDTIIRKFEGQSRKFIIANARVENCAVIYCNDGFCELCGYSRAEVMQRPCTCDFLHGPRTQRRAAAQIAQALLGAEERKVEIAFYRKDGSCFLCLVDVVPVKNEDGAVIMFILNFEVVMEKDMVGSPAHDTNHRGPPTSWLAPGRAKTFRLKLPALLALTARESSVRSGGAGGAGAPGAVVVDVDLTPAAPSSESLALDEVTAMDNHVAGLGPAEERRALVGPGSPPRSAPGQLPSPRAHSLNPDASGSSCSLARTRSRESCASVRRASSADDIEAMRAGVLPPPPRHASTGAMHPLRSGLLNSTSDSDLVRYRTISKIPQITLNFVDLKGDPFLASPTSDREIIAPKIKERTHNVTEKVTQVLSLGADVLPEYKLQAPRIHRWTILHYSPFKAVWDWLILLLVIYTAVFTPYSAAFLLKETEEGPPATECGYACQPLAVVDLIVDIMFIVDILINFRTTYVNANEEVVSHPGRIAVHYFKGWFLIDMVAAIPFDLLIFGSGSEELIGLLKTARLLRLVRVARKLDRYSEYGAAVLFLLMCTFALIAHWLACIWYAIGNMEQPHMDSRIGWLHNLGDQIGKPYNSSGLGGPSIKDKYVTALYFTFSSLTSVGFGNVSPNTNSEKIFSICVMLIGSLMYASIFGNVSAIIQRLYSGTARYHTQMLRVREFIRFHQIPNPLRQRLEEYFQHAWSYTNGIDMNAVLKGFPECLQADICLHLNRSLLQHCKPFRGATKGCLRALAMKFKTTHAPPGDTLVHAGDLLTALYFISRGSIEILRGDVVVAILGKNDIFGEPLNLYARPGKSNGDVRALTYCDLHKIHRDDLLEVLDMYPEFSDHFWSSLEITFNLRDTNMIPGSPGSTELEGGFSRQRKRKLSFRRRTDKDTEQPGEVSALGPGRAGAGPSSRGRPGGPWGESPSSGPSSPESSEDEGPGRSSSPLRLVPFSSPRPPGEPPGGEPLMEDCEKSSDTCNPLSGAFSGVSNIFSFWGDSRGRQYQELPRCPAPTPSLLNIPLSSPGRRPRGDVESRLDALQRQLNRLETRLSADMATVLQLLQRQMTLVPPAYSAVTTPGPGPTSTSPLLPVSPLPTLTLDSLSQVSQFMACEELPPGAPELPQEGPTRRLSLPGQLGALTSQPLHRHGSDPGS

[2] = AUC (0 to infinity) in Sprague-Dawley rat at 25 mg/kg, ig measured up to 24 hrs by LC-MS/MS analysis; type: ADME, organism-based; parameters: dose 25 mg/kg, route […], time infinity; settings: in vivo, po
[3] = Microsomal stability in rat liver microsomes assessed as compound remaining at 100 ug/ml in presence of NADPH measured at 1.5 hrs by LC/MS analysis; type: ADME, Microsome; settings: read-out: Stability
[4] = Clearance in Sprague-Dawley rat at 25 mg/kg, ig measured up to 24 hrs by LC-MS/MS analysis; type: ADME, organism-based; settings: in vivo, po
[5] = target: Rho-associated protein kinase 1 (Homo sapiens, UniProt Q13464); assay: Inhibition of human ROCK1 by mobile shift assay
Chain of Rho-associated protein kinase 1 (Q13464 whole entry): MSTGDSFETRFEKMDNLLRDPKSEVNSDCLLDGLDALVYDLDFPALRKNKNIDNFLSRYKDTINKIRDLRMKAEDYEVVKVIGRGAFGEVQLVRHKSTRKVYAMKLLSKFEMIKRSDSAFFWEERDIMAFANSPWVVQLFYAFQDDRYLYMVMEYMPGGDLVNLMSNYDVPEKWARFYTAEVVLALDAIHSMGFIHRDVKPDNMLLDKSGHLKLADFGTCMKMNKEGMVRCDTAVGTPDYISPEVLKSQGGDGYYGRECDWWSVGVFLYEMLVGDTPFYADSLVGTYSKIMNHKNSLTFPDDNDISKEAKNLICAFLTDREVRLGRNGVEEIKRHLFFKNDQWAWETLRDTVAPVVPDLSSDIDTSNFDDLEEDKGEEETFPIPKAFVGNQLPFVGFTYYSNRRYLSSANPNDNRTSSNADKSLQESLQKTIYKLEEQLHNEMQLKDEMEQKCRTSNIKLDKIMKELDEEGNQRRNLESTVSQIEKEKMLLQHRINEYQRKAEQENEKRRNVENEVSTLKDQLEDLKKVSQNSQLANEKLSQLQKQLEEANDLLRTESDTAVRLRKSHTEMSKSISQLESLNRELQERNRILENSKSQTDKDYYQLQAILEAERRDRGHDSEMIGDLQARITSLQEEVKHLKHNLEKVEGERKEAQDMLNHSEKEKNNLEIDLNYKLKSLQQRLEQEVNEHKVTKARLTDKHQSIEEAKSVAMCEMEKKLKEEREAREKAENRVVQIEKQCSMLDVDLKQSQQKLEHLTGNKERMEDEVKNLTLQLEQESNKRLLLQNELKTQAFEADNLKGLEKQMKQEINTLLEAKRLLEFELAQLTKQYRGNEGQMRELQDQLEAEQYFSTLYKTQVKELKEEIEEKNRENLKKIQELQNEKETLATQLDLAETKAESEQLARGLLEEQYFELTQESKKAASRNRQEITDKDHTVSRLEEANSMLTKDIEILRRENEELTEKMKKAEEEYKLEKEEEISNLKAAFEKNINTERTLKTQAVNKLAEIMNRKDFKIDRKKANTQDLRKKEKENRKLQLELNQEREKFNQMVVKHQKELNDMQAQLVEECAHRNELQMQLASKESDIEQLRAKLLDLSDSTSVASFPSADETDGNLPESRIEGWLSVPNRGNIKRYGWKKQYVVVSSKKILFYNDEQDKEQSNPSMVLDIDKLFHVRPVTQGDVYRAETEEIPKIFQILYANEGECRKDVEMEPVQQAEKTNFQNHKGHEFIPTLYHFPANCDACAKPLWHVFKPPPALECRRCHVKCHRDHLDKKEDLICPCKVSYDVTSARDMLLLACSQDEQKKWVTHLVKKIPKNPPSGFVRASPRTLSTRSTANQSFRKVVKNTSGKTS

[6] = Stability in mouse plasma at 100 ug/ml after 1 hr by LC/MS analysis; type: ADME, cell-free; settings: read-out: Stability
[7] = MRT (0 to infinity) in Sprague-Dawley rat at 25 mg/kg, ig measured up to 24 hrs by LC-MS/MS analysis; type: ADME, organism-based; settings: in vivo, po
[8] = target: Ribosomal protein S6 kinase alpha-1 (Homo sapiens, UniProt Q15418); assay: Inhibition of RSK1 (unknown origin) by mobility shift assay
Chain of Ribosomal protein S6 kinase alpha-1 (Q15418 whole entry): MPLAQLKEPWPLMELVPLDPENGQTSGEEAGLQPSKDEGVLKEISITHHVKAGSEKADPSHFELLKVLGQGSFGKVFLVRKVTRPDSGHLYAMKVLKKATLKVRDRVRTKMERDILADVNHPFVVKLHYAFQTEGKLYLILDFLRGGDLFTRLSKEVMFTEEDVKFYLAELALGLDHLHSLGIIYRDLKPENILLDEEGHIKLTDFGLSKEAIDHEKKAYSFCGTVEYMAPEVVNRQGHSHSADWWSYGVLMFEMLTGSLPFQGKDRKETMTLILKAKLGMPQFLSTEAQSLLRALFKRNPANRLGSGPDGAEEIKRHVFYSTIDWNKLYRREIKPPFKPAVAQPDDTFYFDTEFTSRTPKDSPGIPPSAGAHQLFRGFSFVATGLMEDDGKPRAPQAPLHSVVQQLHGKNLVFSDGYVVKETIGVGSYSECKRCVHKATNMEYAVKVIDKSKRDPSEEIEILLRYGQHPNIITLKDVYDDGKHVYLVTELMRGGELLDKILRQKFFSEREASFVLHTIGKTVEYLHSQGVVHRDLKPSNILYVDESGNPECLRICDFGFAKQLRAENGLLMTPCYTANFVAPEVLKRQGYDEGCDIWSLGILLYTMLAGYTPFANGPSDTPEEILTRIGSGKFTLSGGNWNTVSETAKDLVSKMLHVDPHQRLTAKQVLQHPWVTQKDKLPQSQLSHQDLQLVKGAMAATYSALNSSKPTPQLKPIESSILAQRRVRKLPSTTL

[9] = Microsomal stability in mouse liver microsomes assessed as compound remaining at 100 ug/ml in presence of NADPH measured at 1.5 hrs by LC/MS analysis; type: ADME, Microsome; settings: read-out: Stability
[10] = target: Ribosomal protein S6 kinase beta-1 (Homo sapiens, UniProt P23443); assay: Inhibition of human P70S6K by mobility shift assay
Chain of Ribosomal protein S6 kinase beta-1 (P23443 whole entry): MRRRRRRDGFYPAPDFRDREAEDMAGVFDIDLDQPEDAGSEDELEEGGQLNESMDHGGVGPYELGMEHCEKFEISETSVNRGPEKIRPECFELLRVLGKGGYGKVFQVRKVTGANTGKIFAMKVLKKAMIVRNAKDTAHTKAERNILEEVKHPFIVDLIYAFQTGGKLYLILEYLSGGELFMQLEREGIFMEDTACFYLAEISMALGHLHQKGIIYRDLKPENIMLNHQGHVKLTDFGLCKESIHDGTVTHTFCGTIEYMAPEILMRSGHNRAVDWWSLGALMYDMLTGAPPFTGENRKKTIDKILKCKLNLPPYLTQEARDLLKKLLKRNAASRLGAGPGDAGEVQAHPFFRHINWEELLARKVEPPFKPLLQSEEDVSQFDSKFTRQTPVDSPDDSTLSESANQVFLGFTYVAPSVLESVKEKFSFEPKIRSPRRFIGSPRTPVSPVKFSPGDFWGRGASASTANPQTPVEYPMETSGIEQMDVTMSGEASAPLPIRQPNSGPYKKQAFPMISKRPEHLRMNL

[11] = Tmax in Sprague-Dawley rat at 25 mg/kg, ig measured up to 24 hrs by LC-MS/MS analysis; type: ADME, organism-based; settings: in vivo, po
[12] = Volume of distribution in Sprague-Dawley rat at 25 mg/kg, ig measured up to 24 hrs by LC-MS/MS analysis; type: ADME, organism-based; settings: in vivo, po
[13] = target: RAC-beta serine/threonine-protein kinase (Homo sapiens, UniProt P31751); assay: Inhibition of human Akt2 by mobile shift assay
Chain of RAC-beta serine/threonine-protein kinase (P31751 whole entry): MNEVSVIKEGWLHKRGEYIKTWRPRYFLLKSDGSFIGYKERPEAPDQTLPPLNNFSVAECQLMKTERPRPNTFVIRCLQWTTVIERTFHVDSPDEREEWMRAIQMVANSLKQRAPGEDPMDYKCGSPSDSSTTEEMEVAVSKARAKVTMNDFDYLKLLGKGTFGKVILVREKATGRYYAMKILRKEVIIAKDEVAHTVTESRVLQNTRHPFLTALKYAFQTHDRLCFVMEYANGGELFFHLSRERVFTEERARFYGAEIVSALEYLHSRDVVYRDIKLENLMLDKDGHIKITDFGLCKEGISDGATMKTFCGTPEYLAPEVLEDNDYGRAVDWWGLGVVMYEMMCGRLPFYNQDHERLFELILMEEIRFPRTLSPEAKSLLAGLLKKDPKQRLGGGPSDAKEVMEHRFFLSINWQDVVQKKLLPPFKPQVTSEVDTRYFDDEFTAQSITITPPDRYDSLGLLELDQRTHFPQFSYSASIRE

[14] = Microsomal stability in monkey liver microsomes assessed as compound remaining at 100 ug/ml in presence of NADPH measured at 1.5 hrs by LC/MS analysis; type: ADME, Macaca mulatta, Microsome; settings: rhesus monkey, read-out: Stability
[15] = Cmax in Sprague-Dawley rat at 25 mg/kg, ig measured up to 24 hrs by LC-MS/MS analysis; type: ADME, organism-based; parameters: dose 25 mg/kg, route […]; settings: in vivo, po
[16] = target: T1, Serine/threonine-protein kinase Sgk1 (Homo sapiens, UniProt O00141); assay: Inhibition of human SGK by mobility shift assay
T1 sequence (O00141 whole entry): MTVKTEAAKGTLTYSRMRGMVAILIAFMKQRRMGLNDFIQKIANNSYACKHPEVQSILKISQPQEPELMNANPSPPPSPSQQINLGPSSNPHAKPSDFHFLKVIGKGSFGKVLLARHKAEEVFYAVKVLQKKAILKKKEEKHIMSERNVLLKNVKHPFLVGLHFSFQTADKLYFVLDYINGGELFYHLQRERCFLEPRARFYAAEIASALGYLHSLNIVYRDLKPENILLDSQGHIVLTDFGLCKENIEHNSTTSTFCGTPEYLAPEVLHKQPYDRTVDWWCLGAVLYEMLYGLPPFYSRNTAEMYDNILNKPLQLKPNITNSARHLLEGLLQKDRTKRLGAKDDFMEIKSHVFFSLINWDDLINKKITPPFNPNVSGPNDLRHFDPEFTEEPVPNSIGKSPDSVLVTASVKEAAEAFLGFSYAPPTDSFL

Protein kinase C (PKC) = assay: Inhibition of PKC (unknown origin); type: protein assay, Homo sapiens
[17] = Inhibition of recombinant His-tagged human PKA expressed in Escherichia coli using Ser/Thr 01 as substrate after 1 hr by Z-lyte assay
[18] = MRT (0 to t) in Sprague-Dawley rat at 25 mg/kg, ig measured up to 24 hrs by LC-MS/MS analysis; type: ADME, organism-based; settings: in vivo, po
[19] = Stability in human plasma at 100 ug/ml after 1 hr by LC/MS analysis; type: ADME, cell-free; settings: read-out: Stability
[20] = Half-life in Sprague-Dawley rat at 25 mg/kg, ig measured up to 24 hrs by LC-MS/MS analysis; type: ADME, organism-based; settings: in vivo, po
[21] = Microsomal stability in dog liver microsomes assessed as compound remaining at 100 ug/ml in presence of NADPH measured at 1.5 hrs by LC/MS analysis; type: ADME, Canis lupus familiaris, Microsome; settings: read-out: Stability
[22] = target: RAC-gamma serine/threonine-protein kinase (Homo sapiens, UniProt Q9Y243); assay: Inhibition of Akt3 (unknown origin) by mobile shift assay
[23] = AUC (0 to t) in Sprague-Dawley rat at 25 mg/kg, ig measured up to 24 hrs by LC-MS/MS analysis; type: ADME, organism-based; parameters: time < 24 hr, dose 25 mg/kg, route […]; settings: in vivo, po
SK-OV-3 = assay: Antitumor activity against human SKOV3 cells xenografted in BALB/c nude mouse assessed as tumor growth inhibition at 60 mg/kg, po administered once daily for 21 days relative to control; type: functional; settings: SK-OV-3, po, 504 h, read-out: TGI
[24] = Toxicity in BALB/c nude mouse xenografted with human SKOV3 cells assessed as effect on body weight at 60 to 80 mg/kg, po administered once daily for 21 days; type: organism-based; settings: in vivo, 504 h
[25] = Toxicity in BALB/c nude mouse xenografted with human SKOV3 cells assessed as reduction in mouse survival at 60 to 80 mg/kg, po administered once daily for 21 days; type: organism-based; settings: in vivo, 504 h

Chain of RAC-alpha serine/threonine-protein kinase (P31749 whole entry): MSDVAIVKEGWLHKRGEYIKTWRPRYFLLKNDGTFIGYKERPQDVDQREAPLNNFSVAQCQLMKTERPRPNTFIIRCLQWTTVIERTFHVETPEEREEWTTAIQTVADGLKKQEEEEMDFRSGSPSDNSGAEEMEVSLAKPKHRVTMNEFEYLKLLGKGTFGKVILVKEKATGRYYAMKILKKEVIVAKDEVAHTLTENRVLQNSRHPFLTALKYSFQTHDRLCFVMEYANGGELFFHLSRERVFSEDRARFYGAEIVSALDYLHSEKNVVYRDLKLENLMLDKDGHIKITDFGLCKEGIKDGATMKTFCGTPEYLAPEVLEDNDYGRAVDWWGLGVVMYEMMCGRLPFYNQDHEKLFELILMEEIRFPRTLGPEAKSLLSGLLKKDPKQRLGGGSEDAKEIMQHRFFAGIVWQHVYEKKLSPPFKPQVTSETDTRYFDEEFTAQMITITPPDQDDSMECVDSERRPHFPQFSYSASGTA

Cn1ncc(Cl)c1-c1cc(C(=O)N[C@@H]2CN[C@H](CC(N)=O)C[C@H]2c2ccc(Cl)c(Cl)c2)oc1Cl
IC50 (OVCAR-8): 1000 nM | IC50 [1]: 3.24 nM | IC50 (HCT-116): 650 nM | IC50 (LNCaP): 160 nM | inhibition at 3 µM (hERG (KCNH2)): 15.7%

CN(C)CC[C@@H]1C[C@@H](c2ccc(Cl)c(Cl)c2)[C@H](NC(=O)c2cc(-c3c(Cl)cnn3C)c(Cl)o2)CN1
IC50 (OVCAR-8): 1510 nM | IC50 [1]: 3.4 nM | IC50 (HCT-116): 1710 nM | IC50 (LNCaP): 1930 nM | inhibition at 3 µM (hERG (KCNH2)): 73.4%

Cn1ncc(Cl)c1-c1cc(C(=O)N[C@@H]2CNCC[C@H]2c2ccc(Cl)c(Cl)c2)oc1Cl
IC50 (OVCAR-8): 110 nM | IC50 [1]: 2.9 nM | IC50 (HCT-116): 280 nM | IC50 (LNCaP): 100 nM | inhibition at 3 µM (hERG (KCNH2)): 87%

Cn1ncc(Cl)c1-c1cc(C(=O)N[C@@H]2CN[C@H](CC(=O)NC3CC3)C[C@H]2c2ccc(Cl)c(Cl)c2)oc1Cl
IC50 (OVCAR-8): 580 nM | IC50 [1]: 3.95 nM | IC50 (HCT-116): 740 nM | IC50 (LNCaP): 190 nM | inhibition at 3 µM (hERG (KCNH2)): 70.4%

Cn1ncc(Cl)c1-c1cc(C(=O)N[C@@H]2CN[C@H](CCO)C[C@H]2c2ccc(Cl)c(Cl)c2)oc1Cl
IC50 (OVCAR-8): 610 nM | IC50 [1]: 2.74 nM | IC50 (HCT-116): 340 nM | IC50 (LNCaP): 160 nM | inhibition at 3 µM (hERG (KCNH2)): 51.8%

CC(=O)NCC[C@@H]1C[C@@H](c2ccc(F)c(F)c2)[C@H](NC(=O)c2cc(-c3c(Cl)cnn3C)c(Cl)o2)CN1
IC50 (OVCAR-8): 880 nM | IC50 [1]: 2.49 nM | IC50 (HCT-116): 920 nM | IC50 (LNCaP): 130 nM | inhibition at 3 µM (hERG (KCNH2)): 7.4%

CNC(=O)C[C@@H]1C[C@@H](c2ccc(Cl)c(Cl)c2)[C@H](NC(=O)c2cc(-c3c(Cl)cnn3C)c(Cl)o2)CN1
IC50 (OVCAR-8): 1130 nM | IC50 [1]: 2.64 nM | IC50 (HCT-116): 450 nM | IC50 (LNCaP): 40 nM | inhibition at 3 µM (hERG (KCNH2)): 45.9%

Cn1ncc(Cl)c1-c1cc(C(=O)N[C@@H]2CN[C@H](CCO)C[C@H]2c2ccc(F)c(F)c2)oc1Cl
AUC(0-inf) [2]: 1660 ng·h/mL | remaining at 1.5 h, 100 ug/ml [3]: 69% | CL/F [4]: 433 mL/min/kg | IC50 (OVCAR-8): 460 nM | IC50 [5]: 38 nM | remaining at 1 h, 100 ug/ml [6]: > 99% | MRT inf [7]: 12.3 h | IC50 [8]: 32 nM | remaining at 1.5 h, 100 ug/ml [9]: > 99% | IC50 [10]: 7.1 nM | Tmax [11]: 1.1 h | IC50 [1]: 0.98 nM | Vd [12]: 300.9 L/kg | IC50 (HCT-116): 360 nM | IC50 [13]: 0.54 nM | remaining at 1.5 h, 100 ug/ml [14]: 18% | Cmax [15]: 145 ng/mL | IC50 [16]: 102 nM | IC50 (LNCaP): 60 nM | IC50 (Protein kinase C (PKC)): 16 nM | IC50 [17]: 0.2 nM | MRT last at 24 h [18]: 5.1 h | remaining at 1 h, 100 ug/ml [19]: > 99% | half-life [20]: 12.7 h | remaining at 1.5 h, 100 ug/ml [21]: 96% | inhibition at 3 µM (hERG (KCNH2)): 9% | IC50 [22]: 0.12 nM | AUC(0-t) at 24 h [23]: 1010 ng·h/mL

Cn1ncc(Cl)c1-c1cc(C(=O)N[C@@H]2CN[C@H](CCCO)C[C@H]2c2ccc(Cl)c(Cl)c2)oc1Cl
IC50 (OVCAR-8): 600 nM | IC50 [1]: 2.56 nM | IC50 (HCT-116): 510 nM | IC50 (LNCaP): 210 nM | inhibition at 3 µM (hERG (KCNH2)): 72%

Cn1ncc(Cl)c1-c1cc(C(=O)N[C@@H]2CN[C@H](CC(O)CO)C[C@H]2c2ccc(Cl)c(Cl)c2)oc1Cl (some centres undefined)
IC50 (OVCAR-8): 1610 nM | IC50 [1]: 3.79 nM | IC50 (HCT-116): 1110 nM | IC50 (LNCaP): 70 nM | inhibition at 3 µM (hERG (KCNH2)): 17%

Cn1ncc(Cl)c1-c1cc(C(=O)N[C@H](CN)Cc2ccc(F)c(F)c2)oc1Cl [UPROSERTIB]
inhibition in vivo at 60 mg/kg (SK-OV-3): 63.3% | IC50 (OVCAR-8): 240 to 1320 nM | IC50 [8]: 339 nM | IC50 [10]: 60 nM | IC50 (HCT-116): 720 to 1270 nM | Activity [24]: Non-Toxic | IC50 [16]: 211 nM | IC50 (LNCaP): 70 nM | IC50 [17]: 0.6 nM | inhibition at 3 µM (hERG (KCNH2)): 50 to 50.2% | Activity [25]: Non-Toxic

Cn1ncc(Cl)c1-c1cc(C(=O)N[C@@H]2CN[C@H](CCN3CCCCC3)C[C@H]2c2ccc(Cl)c(Cl)c2)oc1Cl
IC50 (OVCAR-8): 1660 nM | IC50 [1]: 5.65 nM | IC50 (HCT-116): 1020 nM | IC50 (LNCaP): 1780 nM | inhibition at 3 µM (hERG (KCNH2)): 93.1%

Cn1ncc(Cl)c1-c1cc(C(=O)N[C@@H]2CN[C@H](CC(=O)NCCO)C[C@H]2c2ccc(Cl)c(Cl)c2)oc1Cl
IC50 (OVCAR-8): 1450 nM | IC50 [1]: 1.41 nM | IC50 (HCT-116): 670 nM | IC50 (LNCaP): 40 nM | inhibition at 3 µM (hERG (KCNH2)): 6.7%

Cn1ncc(Cl)c1-c1cc(C(=O)N[C@@H]2CN[C@H](CC(O)CO)C[C@H]2c2ccc(F)c(F)c2)oc1Cl (some centres undefined)
IC50 (OVCAR-8): 690 nM | IC50 [1]: 3.31 nM | IC50 (HCT-116): 800 nM | IC50 (LNCaP): 100 nM | inhibition at 3 µM (hERG (KCNH2)): 4.7%

Cn1ncc(Cl)c1-c1cc(C(=O)N[C@@H]2CN[C@H](CCN3CCC(O)CC3)C[C@H]2c2ccc(Cl)c(Cl)c2)oc1Cl
IC50 (OVCAR-8): 15900 nM | IC50 [1]: 5.99 nM | IC50 (HCT-116): 13700 nM | IC50 (LNCaP): 1140 nM | inhibition at 3 µM (hERG (KCNH2)): 12%
